Results as given in publication PMC13270519, “Cytochrome P450-Mediated Metabolism of Antimycobacterial Nα‑Aroyl‑N‑aryl-phenylalanine Amides” (ACS Infectious Diseases, 2026).

Assay: Metabolic stability in mouse liver microsomes (t1/2)
Type: in vitro ADME
Conditions: NADPH, 37 °C
Protocol: Microsomal incubations were carried out in 96-well plates in 3 aliquots of 30 μL each (one for each time point). Liver microsomal incubation medium comprised phosphate buffer (100 mM, pH 7.4), MgCl2 (3 mM), NADPH (3 mM), glucose-6-phosphate (5.3 mM), and glucose-6-phosphate dehydrogenase (0.67 units/mL) with 0.42 mg of liver microsomal protein per mL. In the control reactions, the NADPH-cofactor system was substituted with phosphate buffer. Test compounds (2 μM, final solvent concentration 1.6%) were incubated with microsomes at 37 °C, shaking at 100 rpm. Three time points over 7 min were analyzed. The reactions were stopped by adding 5 volumes of methanol with internal standard to incubation aliquots followed by protein sedimentation by centrifuging at 6,000 rpm for 20 min. Each reaction was performed in duplicate. Supernatants were analyzed using the HPLC system coupled with a tandem mass spectrometer and high-resolution mass spectrometer.
The incubation was stopped after defined time points by precipitation of aliquots of enzymes with 2 volumes of cold internal standard solution (15 nM diphenhydramine in 10% methanol/acetonitrile). […] The remaining test compound at the different time points was analyzed by HPLC-MS/MS (Vanquish Flex coupled to a TSQ Altis Plus, Thermo Fisher, Dreieich, Germany) and used to determine half-life (t 1/2).

| SMILES | Mouse liver microsomes t1/2 [min] |
| --- | --- |
| O=C(N[C@H](Cc1ccccc1)C(=O)Nc1ccccc1N1CCS(=O)(=O)CC1)c1ccccc1F [AAP-SO2] | 1.8 |
| O=C(N[C@H](Cc1ccccc1)C(=O)Nc1ccccc1N1CCOCC1)c1cccs1 [MMV688845] | 0.9 |
